Assay results: patent US7799775B2, “Pyrimidine derivatives” (ASKA Pharmaceutical Co., Ltd., priority 2004, dated 2010)

Experiments:
human 5-HT1A receptor = molecular target: T1, human 5-HT1A receptor (Homo sapiens, UniProt P08908); experiment: Affinity measurement of the compounds to human 5-HT1A receptor (in vitro), [3H]8-OH-DPAT binding; settings: test compound 100 nmols/L; [3H]8-OH-DPAT 0.25 nmols/L; CHO cell membrane expressing human 5-HT1A receptor; read-out: Percent Inhibition (%) on Each Receptor's Binding at 10^−7M, 5-HT1A
T1 construct: purchased Packard Bioscience; host or cells: CHO cells (membrane preparation)
T1 sequence (P08908 1-422): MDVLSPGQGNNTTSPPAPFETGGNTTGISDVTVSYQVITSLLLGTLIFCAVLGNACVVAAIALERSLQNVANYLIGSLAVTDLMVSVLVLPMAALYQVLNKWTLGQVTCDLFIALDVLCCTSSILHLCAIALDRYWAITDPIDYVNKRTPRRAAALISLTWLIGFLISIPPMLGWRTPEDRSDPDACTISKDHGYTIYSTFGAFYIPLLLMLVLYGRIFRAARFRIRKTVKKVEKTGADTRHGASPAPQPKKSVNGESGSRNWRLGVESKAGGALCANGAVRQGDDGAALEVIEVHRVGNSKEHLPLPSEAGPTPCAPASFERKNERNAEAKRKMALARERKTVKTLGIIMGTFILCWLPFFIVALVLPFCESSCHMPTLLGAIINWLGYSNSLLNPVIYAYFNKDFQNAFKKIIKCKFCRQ
Procedure, shortened: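 Membranes from CHO cells expressing human 5-HT1A were incubated 60 min at 27 °C with 0.25 nmol/L [3H]8-OH-DPAT and compound in Tris/MgSO4/EDTA/ascorbate buffer, pH 7.4. Bound radioactivity was collected on PEI-soaked GF/C filters and counted; percent inhibition was corrected for non-specific binding defined with 10 μmol/L 8-OH-DPAT.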

human 5-HT3 receptor = molecular target: T2, human 5-HT3 receptor (Homo sapiens, UniProt P46098); experiment: Measurement of affinity to human 5-HT3 receptor (in vitro), [3H]BRL-43694 binding; settings: test compound 100 nmols/L; [3H]BRL-43694 0.5 nmols/L; HEK-293 cell membrane expressing human 5-HT3 receptor; read-out: Percent Inhibition (%) on Each Receptor's Binding at 10^−7M, 5-HT3
T2 construct: purchased BIOLINKS K.K; host or cells: HEK-293 cells (membrane preparation)
T2 sequence (P46098 24-478): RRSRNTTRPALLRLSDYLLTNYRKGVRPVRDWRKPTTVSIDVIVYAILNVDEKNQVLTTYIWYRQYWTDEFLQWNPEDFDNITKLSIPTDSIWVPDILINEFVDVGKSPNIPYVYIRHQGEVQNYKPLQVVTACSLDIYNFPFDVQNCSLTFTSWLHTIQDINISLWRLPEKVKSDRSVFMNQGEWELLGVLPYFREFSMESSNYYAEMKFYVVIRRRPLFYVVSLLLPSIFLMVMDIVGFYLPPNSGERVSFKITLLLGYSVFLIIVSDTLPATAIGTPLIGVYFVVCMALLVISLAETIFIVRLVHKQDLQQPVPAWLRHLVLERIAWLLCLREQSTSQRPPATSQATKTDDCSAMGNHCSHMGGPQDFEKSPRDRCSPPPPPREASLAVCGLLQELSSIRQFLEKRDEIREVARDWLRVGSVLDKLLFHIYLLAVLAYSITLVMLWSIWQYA
Procedure, shortened: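 Membranes from HEK-293 cells expressing the receptor were incubated with 0.5 nmol/L radioligand and compound for 60 min at 25 °C in Tris/MgCl2/EDTA buffer, pH 7.5. Bound radioactivity was collected by filtration and counted. Percent inhibition was corrected for non-specific binding defined with 10 μmol/L tropisetron; compounds were tested at 100 nmol/L.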

| melting point | inhibition at 0.1 µM (human 5-HT1A receptor) | inhibition at 0.1 µM (human 5-HT3 receptor) | Compound |
| --- | --- | --- | --- |
| 160.1 to 161.8 °C |  |  | CCOC(=O)c1sc2nc(SCCCN3CCN(c4ccccn4)CC3)[nH]c(=O)c2c1C [Example 2-3, 5-methyl-4-oxo-2-[3-(4-pyridin-2-ylpiperazin-1-yl)propylthio]-3,4-dihydrothieno[2,3-d]pyrimidine-6-carboxylic acid ethyl ester] |
| 224.8 to 225.9 °C |  |  | Cc1sc2nc(SCCCN3CCN(c4ccc5ccccc5n4)CC3)[nH]c(=O)c2c1C [Example 2-4, 5,6-dimethyl-2-[3-(4-quinolin-2-yl-piperazin-1-yl)propylthio]-3H-thieno[2,3-d]pyrimidin-4-one] |
| 192.6 to 194.4 °C |  |  | O=c1[nH]c(CCCCN2CCN(c3ccccn3)CC2)nc2sc3c(c12)CCCC3 [Example 3-10, 2-[4-(4-pyridin-2-ylpiperazin-1-yl)butyl]-5,6,7,8-tetrahydro-3H-benzo[4,5]thieno[2,3-d]pyrimidin-4-one] |
| 200.5 to 201.2 °C |  |  | Cc1sc2nc(SCCCN3CCN(c4nc5ccccc5s4)CC3)n(N)c(=O)c2c1C [Example 1-6, 3-amino-2-[3-(4-benzothiazol-2-ylpiperazin-1-yl)propylthio]-5,6-dimethyl-3H-thieno[2,3-d]pyrimidin-4-one] |
| 200.1 to 201.4 °C |  |  | CCOC(=O)c1sc2nc(SCCCN3CCN(c4ccc5ccccc5n4)CC3)[nH]c(=O)c2c1C [Example 2-6, 5-methyl-4-oxo-2-[3-(4-quinolin-2-ylpiperazin-1-yl)propylthio]-3,4-dihydrothieno[2,3-d]pyrimidine-6-carboxylic acid ethyl ester] |
| 190.2 to 191.6 °C |  |  | O=c1[nH]c(SCCCN2CCN(c3ccccn3)CC2)nc2sc3c(c12)CCCC3 [Example 2-2, 2-[3-(4-pyridin-2-ylpiperazin-1-yl)propylthio]-5,6,7,8-tetrahydro-3H-benzo[4,5]thieno[2,3-d]pyrimidin-4-one] |
| 209 to 209.4 °C | 60.8% | 52.6% | Cc1sc2nc(SCCCN3CCN(c4ccccn4)CC3)[nH]c(=O)c2c1C [Example 2-1, 5,6-dimethyl-2-[3-(4-pyridin-2-ylpiperazin-1-yl)propylthio]-3H-thieno[2,3-d]-pyrimidin-4-one] |
